From ChEMBL document CHEMBL1909046, “DrugMatrix in vitro pharmacology data”

How the values were obtained:
[1] = DRUGMATRIX: Serotonin (5-Hydroxytryptamine) 5-HT3 radioligand binding (ligand: [3H] GR-65630); type: cell membranes, Membrane; details: hek293; Not Active = under 50% inhibition at 10 µM
[2] = target: T1, Muscarinic acetylcholine receptor M5 (Homo sapiens, UniProt P08912); type: cell membranes, CHO-K1, Membrane; details: cho-k1; also: in other assays of this panel Not Active means under 50% inhibition at 10 µM
T1 sequence (P08912 whole entry): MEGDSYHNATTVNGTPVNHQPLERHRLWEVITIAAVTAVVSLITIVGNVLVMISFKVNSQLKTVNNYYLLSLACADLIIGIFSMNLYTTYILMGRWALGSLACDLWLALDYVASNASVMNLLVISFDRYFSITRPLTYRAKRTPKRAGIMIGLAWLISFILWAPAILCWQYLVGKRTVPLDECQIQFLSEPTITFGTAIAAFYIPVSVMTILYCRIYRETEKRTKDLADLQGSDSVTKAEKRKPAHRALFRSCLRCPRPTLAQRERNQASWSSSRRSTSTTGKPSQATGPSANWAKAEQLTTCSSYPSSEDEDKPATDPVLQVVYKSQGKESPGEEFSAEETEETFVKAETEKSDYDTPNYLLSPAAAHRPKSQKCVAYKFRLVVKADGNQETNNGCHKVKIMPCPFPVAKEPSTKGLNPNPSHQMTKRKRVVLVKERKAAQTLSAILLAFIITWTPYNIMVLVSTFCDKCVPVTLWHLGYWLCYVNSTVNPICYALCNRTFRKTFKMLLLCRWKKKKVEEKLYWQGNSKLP

[3] = target: T2, 5-hydroxytryptamine receptor 2C (Homo sapiens, UniProt P28335); test: DRUGMATRIX: Serotonin (5-Hydroxytryptamine) 5-HT2C radioligand binding (ligand: [3H] Mesulergine); type: cell membranes, CHO-K1, Membrane; details: Not Active = under 50% inhibition at 10 µM
T2 sequence (P28335 whole entry): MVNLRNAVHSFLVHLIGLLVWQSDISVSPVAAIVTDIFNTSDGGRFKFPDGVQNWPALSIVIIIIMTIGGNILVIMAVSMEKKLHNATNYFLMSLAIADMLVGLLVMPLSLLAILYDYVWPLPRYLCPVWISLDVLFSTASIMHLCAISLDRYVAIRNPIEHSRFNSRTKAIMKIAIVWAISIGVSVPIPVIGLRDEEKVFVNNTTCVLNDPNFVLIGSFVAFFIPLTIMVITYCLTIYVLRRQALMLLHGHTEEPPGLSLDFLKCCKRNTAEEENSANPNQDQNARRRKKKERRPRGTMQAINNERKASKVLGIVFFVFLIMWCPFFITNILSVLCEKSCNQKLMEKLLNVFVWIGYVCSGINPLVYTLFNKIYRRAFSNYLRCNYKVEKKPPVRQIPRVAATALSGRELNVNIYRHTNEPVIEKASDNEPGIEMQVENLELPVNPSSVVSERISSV

[4] = DRUGMATRIX: GABAA, Muscimol, Central radioligand binding (ligand: [3H] Muscimol); type: cell membranes, Rattus norvegicus, Wistar, Brain, Membrane; details: Not Active = under 50% inhibition at 10 µM
[5] = target: Receptor tyrosine-protein kinase erbB-2 (Homo sapiens, UniProt P04626); test: biochemical; type: cell-based, Insect cells;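 also: inhibition of HER2 kinase enzyme activity, measured with Poly(Glu:Tyr) as the phosphorylation substrate; in other assays of this panel Not Active means under 50% inhibition at 10 µM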
[6] = target: Beta-3 adrenergic receptor (Homo sapiens, UniProt P13945); test: DRUGMATRIX: Adrenergic beta3 radioligand binding (ligand: [125I] Cyanopindolol); type: cell membranes, HEK293, Membrane; details: Not Active = under 50% inhibition at 10 µM
Chain of Beta-3 adrenergic receptor (P13945 whole entry): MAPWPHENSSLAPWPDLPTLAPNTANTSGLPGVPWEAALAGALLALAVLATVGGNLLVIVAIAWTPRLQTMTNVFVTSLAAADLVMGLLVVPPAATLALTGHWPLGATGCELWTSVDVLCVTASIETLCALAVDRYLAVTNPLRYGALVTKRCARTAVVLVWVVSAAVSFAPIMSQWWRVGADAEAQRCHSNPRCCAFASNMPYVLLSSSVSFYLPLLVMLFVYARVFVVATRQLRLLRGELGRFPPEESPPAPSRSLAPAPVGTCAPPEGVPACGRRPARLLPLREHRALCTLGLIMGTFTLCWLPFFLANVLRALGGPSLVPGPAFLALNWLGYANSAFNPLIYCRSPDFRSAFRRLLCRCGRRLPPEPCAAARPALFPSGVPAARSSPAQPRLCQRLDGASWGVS

Row | Compound | IC50 [1] | Ki [1] | IC50 [2] | IC50 ([3]; cho-k1) | IC50 [4] | Ki [4] | IC50 ([5]; insect cells) | IC50 ([6]; hek293) | Ki [2] | Ki ([3]; cho-k1) | Ki ([5]; insect cells) | Ki ([6]; hek293) | IC50 ([6]; read-out: IC50) [nM] | Ki ([6]; read-out: Ki) [nM] | IC50 ([3]; read-out: IC50) [nM] | Ki ([3]; read-out: Ki) [nM] | IC50 ([5]; read-out: IC50) [nM]
1 | C[C@H]1O[C@@H](n2cc(F)c(=O)[nH]c2=O)[C@H](O)[C@@H]1O [DOXIFLURIDINE] | Not Active | Not Active | Not Active | Not Active | Not Active | Not Active | Not Active | Not Active | – | – | – | – | – | – | – | – | –
2 | CC[C@H]1CN2CCc3cc(OC)c(OC)cc3[C@@H]2C[C@@H]1C[C@H]1NCCc2cc(OC)c(OC)cc21 [EMETINE] | Not Active | Not Active | Not Active | Not Active | Not Active | Not Active | Not Active | Not Active | – | – | – | – | – | – | – | – | –
3 | O=c1cnn([C@@H]2O[C@H](CO)[C@@H](O)[C@H]2O)c(=O)[nH]1 [6-AZAURIDINE] | Not Active | Not Active | Not Active | Not Active | Not Active | Not Active | Not Active | Not Active | – | – | – | – | – | – | – | – | –
4 | COC(=O)CCc1ccc(OCC(O)CNC(C)C)cc1 (centres undefined) [ESMOLOL] | Not Active | Not Active | Not Active | Not Active | Not Active | Not Active | Not Active | Not Active | – | – | – | – | – | – | – | – | –
5 | C[C@@H]1O[C@@H](O[C@@H]2C=C3CC[C@@H]4[C@H](CC[C@]5(C)[C@@H](c6ccc(=O)oc6)CC[C@]45O)[C@@]3(C)CC2)[C@H](O)[C@H](O)[C@H]1O [PROSCILLARIDIN] | Not Active | Not Active | Not Active | Not Active | Not Active | Not Active | Not Active | Not Active | – | – | – | – | – | – | – | – | –
6 | NYSTATIN | Not Active | Not Active | Not Active | Not Active | Not Active | Not Active | Not Active | Not Active | Not Active | Not Active | Not Active | Not Active | – | – | – | – | –
7 | C[C@@H]1C[C@H]2[C@@H]3CCC4=CC(=O)C=C[C@]4(C)[C@@]3(F)[C@@H](O)C[C@]2(C)[C@@]1(O)C(=O)CO [DEXAMETHASONE] | Not Active | Not Active | Not Active | Not Active | Not Active | Not Active | Not Active | Not Active | – | – | – | – | – | – | – | – | –
8 | O=C(c1ccccc1C(F)(F)F)N1CCC(Cc2ccccc2)CC1 | Not Active | Not Active | Not Active | Not Active | Not Active | Not Active | Not Active | Not Active | – | – | – | – | – | – | – | – | –
9 | Brc1c(NC2=NCCN2)ccc2nccnc12 [BRIMONIDINE] | Not Active | Not Active | Not Active | Not Active | Not Active | Not Active | Not Active | Not Active | – | – | – | – | – | – | – | – | –
10 | CC1(C)S[C@@H]2[C@H](NC(=O)[C@H](N)c3ccccc3)C(=O)N2[C@H]1C(=O)O [AMPICILLIN] | Not Active | Not Active | Not Active | Not Active | Not Active | Not Active | Not Active | Not Active | – | – | – | – | – | – | – | – | –
11 | C[n+]1ccccc1/C=N/O.[Cl-] [PRALIDOXIME CHLORIDE] | Not Active | Not Active | Not Active | Not Active | Not Active | Not Active | Not Active | Not Active | – | – | – | – | – | – | – | – | –
12 | Cc1c(OCC(F)(F)F)ccnc1C[S+]([O-])c1nc2ccccc2[nH]1 (centres undefined) [LANSOPRAZOLE] | Not Active | Not Active | Not Active | Not Active | Not Active | Not Active | Not Active | Not Active | – | – | – | – | – | – | – | – | –
13 | COc1ccc(C2C(=O)c3ccccc3C2=O)cc1 [ANISINDIONE] | Not Active | Not Active | Not Active | Not Active | Not Active | Not Active | Not Active | Not Active | – | – | – | – | – | – | – | – | –
14 | COC(=O)Nc1nc2ccc([S+]([O-])c3ccccc3)cc2[nH]1 (centres undefined) [OXFENDAZOLE] | Not Active | Not Active | Not Active | Not Active | Not Active | Not Active | Not Active | Not Active | – | – | – | – | – | – | – | – | –
15 | CC(C(=O)O)c1ccc2oc(-c3ccc(Cl)cc3)nc2c1 (centres undefined) [BENOXAPROFEN] | Not Active | Not Active | Not Active | Not Active | Not Active | Not Active | Not Active | Not Active | – | – | – | – | – | – | – | – | –
16 | Cc1cc2c(OCC(CNC(C)(C)C)OC(=O)c3ccccc3)cccc2[nH]1 (centres undefined) [BOPINDOLOL] | Not Active | Not Active | Not Active | Not Active | Not Active | Not Active | Not Active | – | – | – | – | – | 458 | 344 | – | – | –
17 | Nc1ccn([C@@H]2O[C@H](CO)[C@@H](O)C2(F)F)c(=O)n1 [GEMCITABINE] | Not Active | Not Active | Not Active | Not Active | Not Active | Not Active | Not Active | Not Active | – | – | – | – | – | – | – | – | –
18 | COc1ccc2[nH]cc(CCNC(C)=O)c2c1 [MELATONIN] | Not Active | Not Active | Not Active | Not Active | Not Active | Not Active | Not Active | Not Active | – | – | – | – | – | – | – | – | –
19 | GADOPENTETATE DIMEGLUMINE | Not Active | Not Active | Not Active | Not Active | Not Active | Not Active | Not Active | Not Active | Not Active | Not Active | Not Active | Not Active | – | – | – | – | –
20 | C#CC1(O)CC[C@H]2[C@@H]3CCC4=CC(=O)CC[C@@H]4[C@H]3CC[C@@]21CC (some centres undefined) [NORGESTREL] | Not Active | Not Active | Not Active | Not Active | Not Active | Not Active | Not Active | Not Active | – | – | – | – | – | – | – | – | –
21 | C[n+]1ccc(-c2cc[n+](C)cc2)cc1.[Cl-].[Cl-] [PARAQUAT DICHLORIDE] | Not Active | Not Active | Not Active | Not Active | Not Active | Not Active | Not Active | Not Active | – | – | – | – | – | – | – | – | –
22 | C[C@@H]1CC[C@@]2(OC1)O[C@H]1[C@@H](O)[C@H]3[C@@H]4CC[C@H]5C[C@@H](O[C@@H]6O[C@H](CO)[C@H](O[C@@H]7O[C@H](CO)C(O)[C@H](O[C@@H]8OC[C@@H](O)[C@H](O)[C@H]8O)[C@H]7O[C@@H]7O[C@H](CO)[C@H](O)[C@H](O[C@@H]8O[C@H](CO)[C@@H](O)[C@H](O)[C@H]8O)[C@H]7O)[C@H](O)[C@H]6O)[C@H](O)C[C@]5(C)[C@H]4CC[C@]3(C)[C@H]1[C@@H]2C (some centres undefined) [DIGITONIN] | Not Active | Not Active | Not Active | Not Active | Not Active | Not Active | Not Active | Not Active | – | – | – | – | – | – | – | – | –
23 | Oc1c(Cl)cc(Cl)c(Cl)c1Cc1c(O)c(Cl)cc(Cl)c1Cl [HEXACHLOROPHENE] | Not Active | Not Active | Not Active | – | Not Active | Not Active | – | Not Active | – | – | – | – | – | – | 4600 | 2410 | 3320
